# Reference: patent US20080089894A1, “Transplant tolerance by costimulation blockade and T-cell activation-induced apoptosis” (priority 1998, published 2008)
# Values joined by “and” are separate entries in the source; they are usually repeats but may differ in a detail not shown here. Identical values can stand only once.
# System: BALB/c mouse heart allografts
# Assay: BALB/c mouse heart allograft survival in C3H/He mice
# Type: in vivo
# Settings: BALB/c heart allograft in C3H/He host; one value per mouse; checked daily by palpitation; time in days
# Method: A control group of three C3H/He mice received syngeneic transplants. The treatments were given as follows:
# Group 1) Anti-CD40L+CTLA4-Ig
# Anti-CD40L: 250 μg/injection i.v. (intravenous) on day 0, i.p. (intraperitoneal) on day +2, +4,
# CTLA4-Ig: 200 μg/injection i.p. on day 0, +2, +4, +6.
# Anti-CD40L: 250 μg/injection i.v. on day 0, i.p. on day +2, +4,
# CTLA4-Ig: 200 μg/injection i.p. on day 0, +2, +4, +6,
# Group 3) Anti-CD40L+CTLA4-Ig+RPM
# CTLA4-Ig: 200 μg/injection i.p. on day 0, +2, +4, +6
# RPM: 0.2 mg/kg/day i.p. on day 0, +1, +2, then every other day to day +14.
# RPM: 0.2 mg/kg/day i.p. on day 0, +1, +2, then every other day to day +14. The hosts were checked daily for graft survival by palpitation. In addition, other mice were sacrificed for pathologic examination at various time points.
smiles,measurement,value
"CO[C@H]1C[C@@H]2CC[C@@H](C)[C@@](O)(O2)C(=O)C(=O)N2CCCC[C@H]2C(=O)O[C@H]([C@H](C)C[C@@H]2CC[C@@H](O)[C@H](OC)C2)CC(=O)[C@H](C)/C=C(\C)[C@@H](O)[C@@H](OC)C(=O)[C@H](C)C[C@H](C)/C=C/C=C/C=C/1C [RPM, rapamycin]",Graft Survival,> 100 (3×) and > 97 and > 89
